Reference: publication PMC9465641 (Frontiers in Pharmacology, 2022)
Counter-ions that a name gives are not always drawn. Positions of bridges follow the written chain, without caps; N, C: chain ends. Non-standard residues stand in square brackets, D forms with d. Residues, ends and D or L forms follow the SMILES beside them. *: point of attachment. X1 = CC[C@H](C)CCCCC(=O)*; Dab = NCC[C@H](N)C(=O)O

What was measured:
[1] = Urinary excretion and renal clearance of colistin sulfate; assay type: in vivo, human
Method: Colistin sulfate treatment was at the discretion of their medical teams. […] Colistin sulfate was routinely subjected to therapeutic drug monitoring (TDM) in our hospital. […] Other blood samples were collected randomly from residual blood of blood gas analysis or routine blood tests. In addition, urine samples from 6 patients with catheters in the intensive care unit were collected and recorded across a dosage interval (0–12 h after dosing) after 72 h of therapy. All samples were centrifuged for 10 min (4,000 ×g), and the supernatant was immediately collected and stored at −80°C pending analysis.
Colistin A and colistin B in plasma and urinary samples were quantified using a validated ultraperformance liquid chromatography tandem mass spectrometry (LC-MS/MS) assay. Briefly, samples were pretreated with acetonitrile, and 1 μL supernatant was injected into the LC-MS/MS instrument for analysis. A Waters XBridge BEH HILIC (4.6 × 150 mm, 2.5 μm) column was used. The mobile phase, consisting of eluents A (0.1% formic acid in water, vol/vol) and B (methanol), was delivered at a flow of 0.5 ml/min. Analysis of independently prepared quality control samples indicated good reproducibility (coefficients of variation ≤12.57%), and accuracy ranged from 88.52% to 109.43%. The limit of quantification was 0.034 mg/L for colistin A and 0.059 mg/L for colistin B. Since colistin A and B had similar structures, molecular weights and pharmacokinetic characteristics, the concentrations of colistin A and B were added together and referred to as colistin ([Li et al., 2003]; [Couet et al., 2011]).
The renal clearance (CLR) of colistin was calculated as the ratio of the amount recovered in urine to the area under the plasma concentration-time curve (AUC) during the same period ([Sandri et al., 2013]). The percentage of colistin sulfate excreted in urine was defined as the amount of colistin recovered in urine divided by the dose administered. The fraction of renal clearance was estimated by CLR divided by total body clearance (CL) ([Li et al., 2003]).

[2] = tested on: carbapenem-resistant gram-negative bacteria; assay: Clinical outcome, microbiological outcome and nephrotoxicity in patients; assay type: in vivo, human
Method: The primary endpoint was the clinical outcome, and the secondary endpoint was the microbiological outcome. Clinical outcomes were defined as valid, if signs and symptoms of infection disappeared or improved on Day 7 after the initiation of colistin therapy; or invalid, defined as any of the following criteria: death related to infection, hemodynamic instability, deteriorated Sequential Organ Failure Assessment (SOFA) score, constant fever >38.5°C, repeat isolation of bacterial phenotypically identical to the index isolate. […] Colistin-induced nephrotoxicity was defined using RIFLE (risk, injury, failure, loss of kidney function, and end-stage renal disease) criteria during treatment ([Bellomo et al., 2004]). […]

A. baumannii = assay: MIC for colistin of causative pathogen; assay type: cell-based; conditions: AB
K. pneumoniae = assay: MIC for colistin of causative pathogen; assay type: cell-based; conditions: isolate of patient 2; KP
[3] = tested on: PA+AB (P. aeruginosa + A. baumannii); assay: MIC for colistin of causative pathogen; assay type: cell-based
[4] = design: method as in Al-Khayyat and Aronson, 1973; conditions: dogs; ref Al-Khayyat and Aronson, 1973; cited from earlier work
[5] = design: method as in Couet et al., 2011; conditions: colistin converted from CMS; ref Couet et al., 2011; cited from earlier work
[6] = used for fAUC/MIC; ref Nation et al., 2016; cited from earlier work
Method: The AUC for each dosing regimen was calculated at 24 or 72 h after therapy to evaluate the probability of target attainment (PTA) of fAUC/MIC ≥20 ([Dudhani et al., 2010a]; [Cheah et al., 2015]), where f is the unbound fraction of colistin defined as 0.49 ([Nation et al., 2016]). Dosing regimens were considered appropriate if PTA ≥90% was achieved. In addition, the average steady-state plasma colistin concentration (Css,avg) was used to evaluate the probabilities of efficacy and toxicity, and the desired Css, avg were designed to achieve target attainment rates of >80% for Css,avg ≥ 2 and <30% ...

[7] = patient 1, Pulmonary, PA+AB, MIC 0.5 mg/L, 1.0 MU q12h, with MER+LIN
[8] = patient 2, Pulmonary, Bloodstream, Urinary tract, KP, MIC 0.5 mg/L, 1.0 MU q12h, with MER
[9] = patient 3, Pulmonary, AB, MIC 0.5 mg/L, 0.75 MU q12h + inhaled 0.25MU q12h, with MER
[10] = patient 6, Pulmonary, Bloodstream, KP, MIC 0.5 mg/L, 1.0 MU q12h + inhaled 0.25MU q12h, with PIP/TAZ
[11] = patient 7, Pulmonary, KP, MIC 0.5 mg/L, 0.75 MU q12h + inhaled 0.25MU q12h, with MER, PIP/TAZ
[12] = patient 8, Pulmonary, AB, MIC 2 mg/L, 0.75 MU q12h + inhaled 0.25MU q12h, with MER
[13] = patient 9, Pulmonary, AB, MIC 0.5 mg/L, 0.75 MU q12h + inhaled 0.25MU q12h, with MER
[14] = patient 10, Pulmonary, AB, MIC 0.5 mg/L, 0.75 MU q12h + inhaled 0.25MU q12h, with MER+LIN
[15] = patient 11, Bloodstream, AB, MIC 0.5 mg/L, 1.0 MU q12h, with MER+TEI
[16] = patient 12, Bloodstream, Urinary tract, KP, MIC 0.5 mg/L, 0.5 MU q8h, with CEF/AVI
[17] = patient 13, Pulmonary, Bloodstream, KP, MIC 0.5 mg/L, 0.5 MU q8h, with CEF/AVI
[18] = patient 14, Pulmonary, Bloodstream, Abdomen, KP, MIC 0.5 mg/L, 0.5 MU q8h, with CEF/AVI
[19] = patient 15, Abdomen, PA+AB, MIC 1, 2 mg/L, 0.75 MU q8h + inhaled 0.25MU q12h, with MER+CEF/SUL
[20] = patient 16, Pulmonary, AB, MIC 0.5 mg/L, 0.5 MU q8h + inhaled 0.25MU q12h, with MER+CEF/SUL
[21] = patient 18, Pulmonary, AB, MIC 0.5 mg/L, 0.75 MU q12h + inhaled 0.25MU q12h, with MER
[22] = patient 19, Pulmonary, AB, MIC 0.5 mg/L, 0.5 MU q8h, with MER+TEI

## CC[C@H](C)CCCCC(=O)N[C@@H](CCN)C(=O)N[C@H](C(=O)N[C@@H](CCN)C(=O)N[C@H]1CCNC(=O)[C@H]([C@@H](C)O)NC(=O)[C@H](CCN)NC(=O)[C@H](CCN)NC(=O)[C@H](CC(C)C)NC(=O)[C@@H](CC(C)C)NC(=O)[C@H](CCN)NC1=O)[C@@H](C)O [colistin sulfate] (X1-[Dab]T[Dab][Dab][Dab][dL]L[Dab][Dab]T; lactam 4-C)
[1]; human, iv, six patients, 41 urine samples, 0-12 h dosage interval after 72 h of therapy, median, read-out: percentage of colistin dose excreted in urine, median
  dose excreted: 10.1%
[1]; patient 1, 1.0 MU q12h
  CLR: 0.133 L/h
  CLR/CL: 9.15%
[1]; patient 2, 1.0 MU q12h
  CLR: 0.405 L/h
  CLR/CL: 15.58%
[1]; patient 3, 0.75 MU q12h
  CLR: 0.108 L/h
  CLR/CL: 2.52%
[1]; patient 5, 0.75 MU q12h
  CLR: 0.284 L/h
  CLR/CL: 17.95%
[1]; patient 7, 0.75 MU q12h
  CLR: 0.053 L/h
  CLR/CL: 4.64%
[1]; patient 8, 0.75 MU q12h
  CLR: 0.767 L/h
[1]; six patients, median
  12-hour urinary excretion of colistin, median: 4.149 mg
  CLR as percentage of CL (CLR/CL), median: 12.37%
  renal clearance (CLR), median: 0.209 L/h
[2]; 12 of 16 cases, definitive therapy, Day 7
  successful clinical outcomes: 75%
[2]; 13 of 16 subjects, causative pathogen MIC 0.5–2 mg/L
  microbiological eradication: 81.25%
[2]; during the treatment
  colistin-induced nephrotoxicity (RIFLE criteria): None of the patients experienced colistin-induced nephrotoxicity
[2]; [7]
  Clinical outcomes: Valid
  Microbiological outcomes: clearance
[2]; [8]
  Clinical outcomes: Invalid
  Microbiological outcomes: clearance
[2]; [9]
  Clinical outcomes: Valid
  Microbiological outcomes: clearance
[2]; [10]
  Clinical outcomes: Valid
  Microbiological outcomes: clearance
[2]; [11]
  Clinical outcomes: Valid
  Microbiological outcomes: clearance
[2]; [12]
  Clinical outcomes: Invalid
  Microbiological outcomes: uncleared
[2]; [13]
  Clinical outcomes: Valid
  Microbiological outcomes: clearance
[2]; [14]
  Clinical outcomes: Valid
  Microbiological outcomes: clearance
[2]; [15]
  Clinical outcomes: Valid
  Microbiological outcomes: clearance
[2]; [16]
  Clinical outcomes: Valid
  Microbiological outcomes: clearance
[2]; [17]
  Clinical outcomes: Valid
  Microbiological outcomes: clearance
[2]; [18]
  Clinical outcomes: Valid
  Microbiological outcomes: clearance
[2]; [19]
  Clinical outcomes: Invalid
  Microbiological outcomes: uncleared
[2]; [20]
  Clinical outcomes: Valid
  Microbiological outcomes: clearance
[2]; [21]
  Clinical outcomes: Valid
  Microbiological outcomes: clearance
[2]; [22]
  Clinical outcomes: Invalid
  Microbiological outcomes: uncleared
A. baumannii; isolate of patient 8
  MIC: 2 µg/mL
A. baumannii; isolate of patient 18
  MIC: 0.5 µg/mL
A. baumannii; isolate of patient 19
  MIC: 0.5 µg/mL
K. pneumoniae
  MIC: 0.5 µg/mL
[3]; isolates of patient 15, first printed value
  MIC: 1 µg/mL
[3]; isolates of patient 15, second printed value
  MIC: 2 µg/mL
[4]
  dose recovered from urine: 0.13 ± 0.09%
[5]
  CL: 2.92 L/h
[6]
  unbound fraction (f): 0.49
